According to PMC11357992, “Non-invasive mapping of systemic neutrophil dynamics upon cardiovascular injury” (Nature Cardiovascular Research, 2023):
“And” between values parts separate entries of the source, which are not always exact repeats. Equal values may be shown once. Where no end group is shown, it is not given here. Side-chain parts run from the residue outwards. rhodamine‑labelled PEGylated perfluoro‑15‑crown‑5 ether nanoemulsion = not defined here; carboxyfluorescein = N-terminal fluorescence label (CF)

Assays:
murine neutrophils = experiment: Ex vivo mNPPFC uptake by neutrophils from mice with Matrigel-LPS plug, flow cytometry; format: cell-based, mouse; design: ex vivo uptake by murine neutrophils, Ctrl - mNPPFCs, raw data: unit not given here; conditions: for ex vivo uptake by murine neutrophils, Ctrl - mNPPFCs, raw data: Ctrl mice, single samples #1-#5
Procedure: To induce defined inflammatory foci, we adopted a recently developed model of localized subcutaneous inflammation. To this end, ice-cold Matrigel (Corning) was doped with LPS (1 µg µl^−1; Salmonella typhimurium, Sigma-Aldrich) and subcutaneously (s.c.) implanted into the neck of the mice. Twenty-four hours after implanting the plug, neutrophils were isolated from the blood and incubated ex vivo with ^mNPPFCs or ^ConPFCs. In separate experiments, 24 h after implantation, ^mNPPFCs or ^ConPFCs were injected intravenously, and immune cells were isolated from the blood. In further experiments, 1 d after plug injection, mice received 1 mmol per kg BW ^mNPPFCs, and, 24 h later, the bone marrow was analyzed by ^1H/^19F MRI. Thereafter, mice were killed, and neutrophils were isolated from the bone marrow for determination of cell numbers. In each case, immune cells were analyzed by flow cytometry.
A total of 1 × 10^6 cells were incubated with 10 µl of the emulsion over a period of 80 min at 37 °C. At distinct time points, 50 µl of the samples were transferred into 2 ml of ice-cold MACS buffer and analyzed for rhodamine fluorescence by flow cytometry.

bone marrow neutrophils = experiment: In situ labeling of bone marrow neutrophils and tracking after MI, 1H/19F MRI of bone marrow; format: in vivo, mouse
Procedure: For labeling of neutrophils before MI, mice were anesthetized (1.5% isoflurane) and 1 mmol per kg BW PFCs were injected intravenously via the tail vein on 3 consecutive days. Induction of MI was essentially carried out as previously described. For inhibiting the egress of neutrophils from the bone marrow in a subset of experiments, a cocktail of neutralizing antibodies was injected i.p. 1 h before and 4 h after MI (CXCL1, CXCL2, G-CSF, GM-CSF, 50 µg each, Thermo Fisher). To generate neutropenic mice, 48 and 24 h before MI, 500 µg of the Ly6G-depletion antibody (BioXcell, clone 1A8) was injected i.p. in independent experiments.
All experiments were performed with a vertical 9.4 T Bruker AVANCE^III Wide Bore NMR spectrometer (Bruker) driven by ParaVision 5.1 and operating at frequencies of 400.21 MHz for ^1H measurements and 376.54 MHz for ^19F measurements using a Bruker microimaging unit, Micro2.5, with actively shielded gradient sets (1.5 T m^−1). Data were acquired using a 25-mm quadrature ^19F resonator with one channel tunable to both ^1H and ^19F. Mice were anesthetized with 1.5% isoflurane and kept at 37 °C. After acquisition of morphological ^1H images, the resonator was tuned to ^19F, and anatomically matching ^19F images were recorded essentially as described previously. […]
Slice packages were placed in sagittal orientation to cover the complete bone marrow in the tibia and femur in both legs using the following scan details: ^1H RARE, TR = 2,000 ms, FOV = 4.00 × 2.56 cm^2, matrix = 256 × 256, ST = 1 mm, tAcq = 1 min; ^19F RARE, TR = 2,500 ms, FOV = 4.00 × 2.56 cm^2, matrix = 64 × 64, ST = 3 mm, tAcq = 10 min.
Extended Data Fig. 4 Experimental timeline and whole body ^1H/^19F MRI of a ^mNPPFC-treated mouse. a, To label neutrophils within the bone marrow, ^mNPPFCs (or ^ConPFCs as control) were intravenously injected on three consecutive days (day −3, −2, −1) followed by ^1H/^19F MRI of the bone marrow on day 0. Subsequently, MI was induced and bone marrow and the infarcted heart were analyzed by combined ^1H/^19F MRI 24 h later. b, In separate experiments, neutralizing antibodies against CXCL1, CXCL2, G-CSF and GM-CSF were injected intraperitoneally (i. p.; 50 µg) 1 h before and 4 h post induction of MI to inhibit the MI-stimulated egress of neutrophils from the bone marrow and their infiltration into the heart. c, To determine the whole body biodistribution of ^mNPPFCs, ^mNPPFCs were intravenously injected daily over three consecutive days. Afterwards, whole body ^1H/^19F MRI measurements were performed to visualize the labelled neutrophils in the different bone marrow compartments. The bright ^19F spot in the middle represents the liver – an organ known to be as major site of (PFC) nanoparticle deposition.
Extended Data Fig. 5 ^mNPPFC incorporation into the bone marrow and cardiac function after MI. a, Impact of neutrophil depletion on ^mNPPFC incorporation into the bone marrow: For in vivo labeling of bone marrow neutrophils, ^mNPPFCs were injected intravenously and 24 h later the ^19F signal within the femur and tibia was determined (gray). […] The marrow mainly belongs to the diaphysis whereas the growth of the bones takes place at the inner and outer epiphysis. […]

Substance: mNPPFCs: PEGylated rhodamine-labeled perfluoro-15-crown-5 ether nanoemulsion (maleimide PFCs) coupled with murine neutrophil-specific peptide mNP (carboxyfluorescein-DFYKPMPNLRITGGGC([maleimide‑PEG2000‑DSPE-rhodamine‑labelled PEGylated perfluoro‑15‑crown‑5 ether nanoemulsion]); reading uncertain; also: printed as DFYKPMPNLRIT-GGG-C)
- ex vivo uptake by murine neutrophils under LPS-stimulated versus unstimulated conditions (murine neutrophils; 24 h after Matrigel-LPS implantation): more rapid and potent uptake
- ex vivo uptake by murine neutrophils, Ctrl - mNPPFCs, raw data (murine neutrophils; time 0): 101 and 127 and 111 and 105
- ex vivo uptake by murine neutrophils, Ctrl - mNPPFCs, raw data (murine neutrophils; time 40): 4266 and 3190 and 3194 and 3820 and 4700
- 19F signal of bone marrow, Post (bone marrow neutrophils; 1H/19F MRI, after MI, panel B raw data, single animals): 384270 and 284234 and 342343 and 246818 and 294364 and 237217 and 352300
- 19F signal of bone marrow, Pre (bone marrow neutrophils; 1H/19F MRI, before MI, panel B raw data, single animals): 555612 and 765758 and 385254 and 440946 and 378880 and 354237 and 356979 and 487088 and 602276
- 19F signal within the femur and tibia (bone marrow) (bone marrow neutrophils; Ctrl (no depletion), 24 h after i.v. mNPPFC injection, individual experiments): 1.88E+06 and 1.21E+06 and 1.06E+06 and 1.73E+06
- change of bone marrow 19F signal 24 h after MI (bone marrow neutrophils; femur and tibia, daily i.v. injections over 3 d before MI): substantial reduction
- BM 19F signal post MI normalized to the 19F signals detected before induction of MI (bone marrow neutrophils; mNPPFC-labeled mice, Nabs = plus antibodies against CXCL1, CXCL2, G-CSF, GM-CSF i.p. 1 h before and 4 h post MI, individual experiments): 69.1617 and 64.46 and 69.676 and 82.4597 and 48.7011 and 58.4948 and 73.1944 and 76.1165
